One assay concerns Mus musculus. The assay is described as follows: Compound was tested for analgesic activity in the mouse writhing assay at intragastric dose of 30 mg/Kg. In kind it is functional. Conditions: po.
Assay [1] in a line: Compound was tested for antagonism of Prostaglandin E2 receptor activity in guinea pig ileum assay based on the dose ratio at 3 uM. The note with it: read-out: pA2 (converted).

The source of these data is ChEMBL document CHEMBL1127243, “8-chlorodibenz[b,f][1,4]oxazepine-10(11H)-carboxylic acid,2-[3-[2-(furanylmethyl)thio]-1-oxopropyl]hydrazide (SC-51322): A potent PGE2 antagonist and analgesic” (Bioorg Med Chem Lett, 1994).

What is called ED50 is the midpoint of the dose-response relation. A lower ED50 goes with greater potency.

With `O=C(CCS(=O)(=O)Cc1ccco1)NNC(=O)N1Cc2ccccc2Oc2ccc(Cl)cc21`, the ED50 in the assay on Mus musculus turned out to be 5 mg/kg. For the same compound, in assay [1], the Kb was 251 nM.
In the assay with Mus musculus, `O=C(CCSCc1ccco1)NNC(=O)N1Cc2ccccc2Oc2ccc(Cl)cc21` showed an ED50 of 0.9 mg/kg.
In turn, `O=C(CC[S+]([O-])Cc1ccco1)NNC(=O)N1Cc2ccccc2Oc2ccc(Cl)cc21` (configuration not stated) gave an ED50 with Mus musculus of 5 mg/kg. In addition, in assay [1], the Kb was 631 nM.
`O=C(CCCCCl)NNC(=O)N1Cc2ccccc2Oc2ccc(Cl)cc21` [PINADOLINE]: the ED50 in the assay on Mus musculus was determined as 9.8 mg/kg. Moreover, the Kb in assay [1] was 631 nM.
